Assay results published in US20240174649A1, “CULLIN-RING E3 UBIQUITIN LIGASE 4 INHIBITOR COMPOUNDS AND METHODS OF THEIR USE” (ICAHN SCHOOL OF MEDICINE AT MOUNT SINAI, priority 2021, published 2024).

Legend:
ROC1-CUL4A CTD [1] = test: Ligand binding by Micro-Scale Thermophoresis (MST); parameters: species or system human; settings: ratio of Kd
Procedure: (§1) E3 ligase complex (˜2 nmol) was labeled with fluorescent dye using Monolith NT Protein Labeling Kit Red-NHS (Nanotemper) in the presence of 20 mM MES pH 6.0 and 150 mM NaCl. Excess dye was removed using the included gravity flow column and eluted in storage buffer containing 20 mM Tris-HCl, pH 7.4, 150 mM NaCl, and 10% glycerol. The fluorescent E3 complex (˜0.01-0.06 μM) was mixed with increasing amount of compound in a buffer (20 μl) that contains phosphate-buffered saline, 0.1% TWEEN-20 and 2% prionex. Following incubation at room temperature for 30 min, the reaction mixture loaded into premium coated capillaries and analyzed in the Monolith NT.115 machine (Nanotemper). Thermophoresis was recorded for each sample and binding curve was generated and Kd was calculated using the included software. For reactions where significant ligand specific fluorescence quenching occurred (verified by manufacturer's SDS Denaturation-test protocol), the initial fluorescence quenching data was used directly to calculate the binding curve and Kd.

ROC1-CUL4A CTD [2] = target: ROC1-CUL4A CTD (Homo sapiens (Human), UniProt Q13619); test: Ligand binding by Micro-Scale Thermophoresis (MST); settings: MST
Procedure: as §1

Plasma stability = format: in vitro ADME; settings: Human
Procedure: (§2) ADME studies on compounds #33-11 and KH-4-43 for “absorption, distribution, metabolism, and excretion” were carried out at CRO, BioDuro. Kinetic solubility, plasma and microsome stability in rat, mouse and human, as well as Caco-2 Permeability were examined.

ROC1-CUL4A = ROC1-CUL4A (Homo sapiens (Human), UniProt Q13619); test: 32P-Ub chain elongation by ROC1-CUL4A; format: biochemical; parameters: concentration or dose not given beside the values; settings: relative to KH-4-43
Procedure: The reaction was incubated for 5 min at 37° C. […] The reaction was incubated for 5 min at room temperature. In the second step (chase), the completed Cdc34b-Ub thiol ester reaction mixture was combined with one third of the completed mono-ubiquitination mixture. The final volume was adjusted to 10 μl with a mix that contained 50 mM Tris-HCl (pH 7.4), 0.5 mM DTT, 0.1 mg/ml of BSA, 5 mM MgCl2, and 2 mM ATP. Compounds were added where indicated. The chase reaction was incubated for 10 min at 37° C. The reaction products were separated by 4-20% SDS-polyacrylamide gel electrophoresis. The reaction scheme was identical to the one described above for FIGS. 12A-B. […] The reaction products, separated by SDS-PAGE, were visualized and analyzed by phospho-imaging using Typhoon 9500 scanner.

ROC1-CUL3 = ROC1-CUL3 (Homo sapiens (Human), UniProt Q13618); test: Gel-based di-Ub synthesis; format: biochemical; settings: up to 150 μM
E3 (CUL1) = E3 (CUL1) (Homo sapiens (Human), UniProt Q13616); test: E3 (CUL1) inhibition (Table 1); format: biochemical
Procedure: The reaction mixture (15 μl) was assembled onto a 384-well microtiter plate. […] ATP (0.66 mM) was then added to the mix followed by a brief centrifugation to settle down the mixture. The resulting plate was incubated at 30° C. in the Synergy-H1 reader and the fluorescence signal was monitored. Ubiquitination was quantified based on the ratio of acceptor:donor fluorescence (excitation 515 nm; donor emission 570 nm, acceptor emission 670 nm).

CRL1/SCF = CRL1/SCF (Homo sapiens, UniProt Q13616)
[3] = Liver microsome stability; format: in vitro ADME
Procedure: as §2

Chain of ROC1-CUL4A CTD (Homo sapiens (Human), UniProt Q13619) (Q13619 400-759): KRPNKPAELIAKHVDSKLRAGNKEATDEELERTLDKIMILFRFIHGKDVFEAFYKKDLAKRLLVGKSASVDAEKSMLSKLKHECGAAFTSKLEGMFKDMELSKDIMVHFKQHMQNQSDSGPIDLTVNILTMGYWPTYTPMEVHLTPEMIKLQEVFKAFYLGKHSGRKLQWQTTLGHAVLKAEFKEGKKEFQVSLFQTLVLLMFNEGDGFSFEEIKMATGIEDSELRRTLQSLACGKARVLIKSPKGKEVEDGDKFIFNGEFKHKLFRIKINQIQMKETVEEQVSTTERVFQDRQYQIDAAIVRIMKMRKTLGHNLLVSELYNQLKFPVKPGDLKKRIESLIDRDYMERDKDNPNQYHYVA
Chain of ROC1-CUL4A (Q13619 39-759): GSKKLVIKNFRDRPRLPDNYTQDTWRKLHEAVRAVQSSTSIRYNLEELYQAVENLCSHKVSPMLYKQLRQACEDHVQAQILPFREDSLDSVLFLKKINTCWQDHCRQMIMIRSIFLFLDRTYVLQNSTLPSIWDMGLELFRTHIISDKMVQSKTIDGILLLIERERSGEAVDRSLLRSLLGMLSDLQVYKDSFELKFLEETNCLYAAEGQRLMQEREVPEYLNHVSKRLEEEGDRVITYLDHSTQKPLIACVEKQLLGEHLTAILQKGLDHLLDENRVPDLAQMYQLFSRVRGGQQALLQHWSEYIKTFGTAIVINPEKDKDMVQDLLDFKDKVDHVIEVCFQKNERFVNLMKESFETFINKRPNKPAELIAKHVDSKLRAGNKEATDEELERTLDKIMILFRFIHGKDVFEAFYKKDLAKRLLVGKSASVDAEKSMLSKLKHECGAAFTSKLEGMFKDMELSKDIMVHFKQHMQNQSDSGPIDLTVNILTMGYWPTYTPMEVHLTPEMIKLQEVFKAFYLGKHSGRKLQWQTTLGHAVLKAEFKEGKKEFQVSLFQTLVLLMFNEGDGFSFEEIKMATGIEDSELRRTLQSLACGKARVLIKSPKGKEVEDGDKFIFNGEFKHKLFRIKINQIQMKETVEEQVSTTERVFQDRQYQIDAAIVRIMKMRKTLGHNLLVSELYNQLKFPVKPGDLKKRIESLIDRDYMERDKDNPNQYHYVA
Chain of ROC1-CUL4A (P62877 15-108 partner): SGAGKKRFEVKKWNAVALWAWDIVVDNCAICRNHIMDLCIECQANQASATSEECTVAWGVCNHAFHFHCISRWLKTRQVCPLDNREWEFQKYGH
Chain of E3 (CUL1) (Q13616 whole entry): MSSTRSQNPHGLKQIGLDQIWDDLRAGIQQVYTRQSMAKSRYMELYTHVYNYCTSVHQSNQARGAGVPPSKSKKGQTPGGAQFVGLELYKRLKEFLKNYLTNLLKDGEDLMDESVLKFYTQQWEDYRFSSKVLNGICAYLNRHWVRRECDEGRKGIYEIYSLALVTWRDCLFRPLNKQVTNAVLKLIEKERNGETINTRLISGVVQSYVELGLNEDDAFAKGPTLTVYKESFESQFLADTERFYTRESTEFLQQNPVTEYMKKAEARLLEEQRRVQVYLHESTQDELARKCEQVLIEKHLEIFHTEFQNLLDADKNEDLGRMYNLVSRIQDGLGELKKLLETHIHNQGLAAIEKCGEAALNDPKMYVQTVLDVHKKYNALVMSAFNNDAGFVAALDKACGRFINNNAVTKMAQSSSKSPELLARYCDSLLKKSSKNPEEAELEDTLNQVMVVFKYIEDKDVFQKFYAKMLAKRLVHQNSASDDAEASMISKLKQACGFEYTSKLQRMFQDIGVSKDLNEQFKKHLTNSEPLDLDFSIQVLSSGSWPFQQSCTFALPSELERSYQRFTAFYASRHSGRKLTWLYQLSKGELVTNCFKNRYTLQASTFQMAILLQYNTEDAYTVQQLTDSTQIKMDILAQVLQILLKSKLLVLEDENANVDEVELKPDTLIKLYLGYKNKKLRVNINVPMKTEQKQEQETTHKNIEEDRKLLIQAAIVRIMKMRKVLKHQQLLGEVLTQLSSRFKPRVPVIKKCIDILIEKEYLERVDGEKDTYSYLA
Chain of E3 (CUL1) (P62877 whole entry partner): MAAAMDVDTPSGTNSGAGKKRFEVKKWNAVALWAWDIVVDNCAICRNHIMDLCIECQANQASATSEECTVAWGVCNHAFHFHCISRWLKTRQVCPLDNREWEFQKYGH
Chain of ROC1-CUL3 (Q13618 whole entry): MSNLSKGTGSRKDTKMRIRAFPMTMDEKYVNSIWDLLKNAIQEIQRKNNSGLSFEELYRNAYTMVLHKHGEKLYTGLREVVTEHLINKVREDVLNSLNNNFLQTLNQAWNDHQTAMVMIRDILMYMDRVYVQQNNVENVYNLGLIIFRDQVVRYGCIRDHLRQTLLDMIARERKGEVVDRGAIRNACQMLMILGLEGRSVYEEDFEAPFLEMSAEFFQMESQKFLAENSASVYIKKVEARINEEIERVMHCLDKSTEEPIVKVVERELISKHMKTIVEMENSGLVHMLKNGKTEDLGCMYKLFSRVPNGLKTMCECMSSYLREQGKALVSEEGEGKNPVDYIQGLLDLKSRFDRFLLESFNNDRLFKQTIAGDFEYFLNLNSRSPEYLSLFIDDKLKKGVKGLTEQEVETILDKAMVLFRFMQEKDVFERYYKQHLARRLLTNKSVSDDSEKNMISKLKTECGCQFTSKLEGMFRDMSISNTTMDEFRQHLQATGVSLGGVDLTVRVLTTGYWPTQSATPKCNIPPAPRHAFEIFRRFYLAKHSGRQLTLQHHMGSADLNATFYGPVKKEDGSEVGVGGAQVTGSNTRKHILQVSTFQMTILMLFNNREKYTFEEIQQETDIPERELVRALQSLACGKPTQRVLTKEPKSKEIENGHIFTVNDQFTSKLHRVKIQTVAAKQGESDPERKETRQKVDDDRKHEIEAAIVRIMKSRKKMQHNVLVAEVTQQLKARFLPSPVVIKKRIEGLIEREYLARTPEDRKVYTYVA
Chain of ROC1-CUL3 (P62877 whole entry partner): as the sequence (P62877 whole entry partner) above

## O=c1c(-c2cnn(-c3ccccc3)c2)c(C(F)(F)F)oc2c(O)c(O)ccc12 [#33-11, 7,8-dihydroxy-3-(1-phenyl-1H-pyrazol-4-yl)-2-(trifluoromethyl)-4H-chromen-4-one]
ROC1-CUL4A CTD [1]
  binding to ROC1-CUL4A CTD more effectively than ROC1-CUL1 CTD: ~20 fold
ROC1-CUL4A CTD [2]
  Kd: 0.223 µM
Plasma stability
  Plasma Stability: t1/2: >8.33 h
ROC1-CUL4A
  E3 CRL4 Relative Inhibition: 37%
ROC1-CUL3
  level of di-Ub product: remained almost unchanged

## O=c1c(-c2cnn(-c3ccc(Cl)cc3)c2)c(C(F)(F)F)oc2c(O)c(O)ccc12 [KH-4-43, 3-(1-(4-chlorophenyl)-1H-pyrazol-4-yl)-7,8-dihydroxy-2-(trifluoromethyl)-4H-chromen-4-one]
E3 (CUL1)
  EC50: 7 µM
CRL1/SCF
  dose range inhibiting ubiquitination by CRL1/SCF: ~30 µM
[3]; Human
  Liver microsomes: t1/2: >8.33 h
[3]; Rat
  Liver microsomes: t1/2: >8.33 h
